Assay results as given in PubChem BioAssay (NCI).
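Exposure lasted 48 hours, with cells grown in 96-well plates and compounds tested at five concentrations. Definition used: TGI = concentration required for complete inhibition of growth.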

How the values were obtained:
Assay in all cases: DTP human tumour cell line panel, 48 h
786-0 renal = tested on: 786-0 renal
A498 renal = tested on: A498 renal
A549 NSCLC = tested on: A549 NSCLC
ACHN renal = tested on: ACHN renal
BT-549 breast = tested on: BT-549 breast
CAKI-1 renal = tested on: CAKI-1 renal
EKVX NSCLC = tested on: EKVX NSCLC
HCC-2998 colon = tested on: HCC-2998 colon
HCT-116 colon = tested on: HCT-116 colon
HL-60(TB) leukemia = tested on: HL-60(TB) leukemia
HOP-62 NSCLC = tested on: HOP-62 NSCLC
HOP-92 NSCLC = tested on: HOP-92 NSCLC
HS 578T breast = tested on: HS 578T breast
HT29 colon = tested on: HT29 colon
LOX IMVI melanoma = tested on: LOX IMVI melanoma
M14 melanoma = tested on: M14 melanoma
MALME-3M melanoma = tested on: MALME-3M melanoma
MCF7 breast = tested on: MCF7 breast
MDA-MB-231 breast = tested on: MDA-MB-231 breast
MDA-MB-435 = tested on: MDA-MB-435
MDA-N = tested on: MDA-N
MOLT-4 leukemia = tested on: MOLT-4 leukemia
NCI-H226 lung = tested on: NCI-H226 lung
NCI-H23 lung = tested on: NCI-H23 lung
NCI-H460 lung = tested on: NCI-H460 lung
NCI-H522 lung = tested on: NCI-H522 lung
NCI/ADR-RES ovarian = tested on: NCI/ADR-RES ovarian
OVCAR-3 ovarian = tested on: OVCAR-3 ovarian
OVCAR-4 ovarian = tested on: OVCAR-4 ovarian
OVCAR-5 ovarian = tested on: OVCAR-5 ovarian
OVCAR-8 ovarian = tested on: OVCAR-8 ovarian
PC-3 prostate = tested on: PC-3 prostate
RPMI-8226 leukemia = tested on: RPMI-8226 leukemia
RXF 393 renal = tested on: RXF 393 renal
SF-268 CNS = tested on: SF-268 CNS
SF-295 CNS = tested on: SF-295 CNS
SK-MEL-28 melanoma = tested on: SK-MEL-28 melanoma
SK-MEL-5 melanoma = tested on: SK-MEL-5 melanoma
SK-OV-3 ovarian = tested on: SK-OV-3 ovarian
SN12C renal = tested on: SN12C renal
SNB-19 CNS = tested on: SNB-19 CNS
SNB-75 CNS = tested on: SNB-75 CNS
SR leukemia = tested on: SR leukemia
T-47D breast = tested on: T-47D breast
TK-10 renal = tested on: TK-10 renal
U251 CNS = tested on: U251 CNS
UACC-257 melanoma = tested on: UACC-257 melanoma
UACC-62 melanoma = tested on: UACC-62 melanoma
UO-31 renal = tested on: UO-31 renal
COLO 205 colon = tested on: COLO 205 colon
DU-145 prostate = tested on: DU-145 prostate
HCT-15 colon = tested on: HCT-15 colon
IGROV1 ovarian = tested on: IGROV1 ovarian
KM12 colon = tested on: KM12 colon
SF-539 CNS = tested on: SF-539 CNS
SK-MEL-2 melanoma = tested on: SK-MEL-2 melanoma
SW-620 colon = tested on: SW-620 colon

COC1/C=C/C(C)C(OC)CC(O)/C=C/C(C)C(C(C)C(OC)C(C)CCC(=O)C(C)C(C/C=C/N(C)C=O)OC)OC(=O)/C=C/C=C(\C)CC(OC)C(OC)C2=CC(=O)O[C@@H](C(C)C(OC)C1)[C@H]2O (stereo partly specified)
TGI (786-0 renal): 113 nM | TGI (A498 renal): 61.4 nM | TGI (A549 NSCLC): 497 nM | TGI (ACHN renal): 158 nM | TGI (BT-549 breast): 163 nM | TGI (CAKI-1 renal): 52.6 nM | TGI (EKVX NSCLC): 280 nM | TGI (HCC-2998 colon): 51.8 nM | TGI (HCT-116 colon): 61.3 nM | TGI (HL-60(TB) leukemia): > 25000 nM | TGI (HOP-62 NSCLC): 67.3 nM | TGI (HOP-92 NSCLC): 77.3 nM | TGI (HS 578T breast): 93 nM | TGI (HT29 colon): > 25000 nM | TGI (LOX IMVI melanoma): 25 nM | TGI (M14 melanoma): 84.9 nM | TGI (MALME-3M melanoma): 115 nM | TGI (MCF7 breast): 170 nM | TGI (MDA-MB-231 breast): 83.5 nM | TGI (MDA-MB-435): 195 nM | TGI (MDA-N): 159 nM | TGI (MOLT-4 leukemia): > 9730 nM | TGI (NCI-H226 lung): 71.4 nM | TGI (NCI-H23 lung): 151 nM | TGI (NCI-H460 lung): 188 nM | TGI (NCI-H522 lung): 72.2 nM | TGI (NCI/ADR-RES ovarian): 145 nM | TGI (OVCAR-3 ovarian): 48.9 nM | TGI (OVCAR-4 ovarian): 1410 nM | TGI (OVCAR-5 ovarian): 118 nM | TGI (OVCAR-8 ovarian): 199 nM | TGI (PC-3 prostate): 86.2 nM | TGI (RPMI-8226 leukemia): 3240 nM | TGI (RXF 393 renal): 78 nM | TGI (SF-268 CNS): 129 nM | TGI (SF-295 CNS): 79.7 nM | TGI (SK-MEL-28 melanoma): 121 nM | TGI (SK-MEL-5 melanoma): 76.3 nM | TGI (SK-OV-3 ovarian): 104 nM | TGI (SN12C renal): > 25000 nM | TGI (SNB-19 CNS): 244 nM | TGI (SNB-75 CNS): 85.9 nM | TGI (SR leukemia): > 25000 nM | TGI (T-47D breast): 151 nM | TGI (TK-10 renal): 124 nM | TGI (U251 CNS): 120 nM | TGI (UACC-257 melanoma): 105 nM | TGI (UACC-62 melanoma): 185 nM | TGI (UO-31 renal): 76.1 nM

CN(c1c(Cl)cccc1Cl)S(=O)(=O)c1ccccc1[N+](=O)[O-]
TGI (786-0 renal): > 100000 nM | TGI (A549 NSCLC): > 100000 nM | TGI (ACHN renal): > 100000 nM | TGI (BT-549 breast): > 100000 nM | TGI (CAKI-1 renal): > 100000 nM | TGI (COLO 205 colon): > 100000 nM | TGI (DU-145 prostate): > 100000 nM | TGI (EKVX NSCLC): > 100000 nM | TGI (HCC-2998 colon): > 100000 nM | TGI (HCT-116 colon): > 100000 nM | TGI (HCT-15 colon): > 100000 nM | TGI (HOP-62 NSCLC): > 100000 nM | TGI (HS 578T breast): > 100000 nM | TGI (HT29 colon): > 100000 nM | TGI (IGROV1 ovarian): > 100000 nM | TGI (KM12 colon): > 100000 nM | TGI (LOX IMVI melanoma): > 100000 nM | TGI (M14 melanoma): > 100000 nM | TGI (MALME-3M melanoma): > 100000 nM | TGI (MCF7 breast): > 100000 nM | TGI (MDA-MB-435): > 100000 nM | TGI (MDA-N): > 100000 nM | TGI (MOLT-4 leukemia): > 100000 nM | TGI (NCI-H226 lung): > 100000 nM | TGI (NCI-H23 lung): > 100000 nM | TGI (NCI-H460 lung): > 100000 nM | TGI (NCI-H522 lung): > 100000 nM | TGI (NCI/ADR-RES ovarian): > 100000 nM | TGI (OVCAR-3 ovarian): > 100000 nM | TGI (OVCAR-4 ovarian): > 100000 nM | TGI (OVCAR-5 ovarian): > 100000 nM | TGI (OVCAR-8 ovarian): > 100000 nM | TGI (PC-3 prostate): > 100000 nM | TGI (RPMI-8226 leukemia): > 100000 nM | TGI (RXF 393 renal): > 100000 nM | TGI (SF-268 CNS): > 100000 nM | TGI (SF-295 CNS): > 100000 nM | TGI (SF-539 CNS): > 100000 nM | TGI (SK-MEL-2 melanoma): > 100000 nM | TGI (SK-MEL-28 melanoma): > 100000 nM | TGI (SK-OV-3 ovarian): > 100000 nM | TGI (SN12C renal): > 100000 nM | TGI (SNB-19 CNS): > 100000 nM | TGI (SNB-75 CNS): > 100000 nM | TGI (SR leukemia): > 100000 nM | TGI (SW-620 colon): > 100000 nM | TGI (T-47D breast): > 100000 nM | TGI (TK-10 renal): > 100000 nM | TGI (U251 CNS): > 100000 nM | TGI (UACC-257 melanoma): > 100000 nM | TGI (UACC-62 melanoma): > 100000 nM | TGI (UO-31 renal): > 100000 nM
